Literature values in patent US11925768B2, “Method for decolonizing mammalian skin” (AVADIM HEALTH IP, INC., priority 2014, dated 2024).

Conditions: concentrations as low as

concentration producing intense pain in most tissues: about 10 mg/ml
Structure (SMILES): O=S1(=O)CCN(CN2CCS(=O)(=O)NC2)CN1 [Taurolidine, taurolidine]
